Paper PMC12138715, “Exploring Boswellia serrata Triterpenes: A New Frontier in Leukemia Inhibitory Factor Receptor Modulation” (ACS Omega, 2025)

Tests used:
[1] = biological target: T1, leukemia inhibitory factor receptor (LIFR) (Homo sapiens, UniProt P42702); experiment: cell-free AlphaScreen LIF/LIFR binding inhibition; LIFR transactivation in HepG2
T1 construct: Recombinant human LIFR (His-Tag)

[2] = biological target: T1, leukemia inhibitory factor receptor (LIFR); experiment: cell-free AlphaScreen LIF/LIFR binding inhibition
[3] = biological target: T1, leukemia inhibitory factor receptor (LIFR); experiment: biochemical; set-up: Alpha Screen inhibition of biotinylated LIF binding to His-tagged human LIFR; conditions: LIF/LIFR binding
Description: Amplified Luminescent Proximity Homogeneous Assay on LIF-LIFR Recombinant human LIFR (His-Tag) and LIF (biotinylated) were purchased from Sino Biologicals (Sino Biological Europe GmbH, Dusseldorf, Germany) and R&D Systems (Abingdon, UK), respectively, and both were reconstituted as required by the manufacturer. Inhibition of LIFR/LIF binding was measured by Alpha Screen, in white, low-volume, 384-well AlphaPlates (Revvity, Italy) using a final volume of 15 μL and an assay buffer containing 25 mM Hepes (pH 7.4), 100 mM NaCl, and 0.005% Kathon. The concentration of DMSO in each well was maintained at 5% vol/vol. LIFR (His-Tag, final concentration 4.5 nM) was incubated with either the compounds or DMSO for 45 min under continuous shaking. Then, LIF was added (biotinylated, final concentration 9 nM), and the samples were incubated for 15 min prior to adding nickel chelate acceptor beads (final concentration 20 ng/μL) for 30 min. Then, streptavidin donor beads were added (final concentration 20 ng/μL), and the plate was incubated in the dark for 2 h and then read in a Victor Nivo (Revvity, Italy) Multimode Microplate Reader.

[4] = test system: leukemia inhibitory factor receptor (LIFR); experiment: cells; set-up: LIFR/STAT3 luciferase reporter transactivation, LIF 10 ng/mL stimulated, Renilla normalized; conditions: Homo sapiens, HepG2, 24 h; LIF 10 ng/mL stimulated; read-out: Transactivation Inhibition (%), 50 µM
Description: Luciferase Reporter Gene Assay To evaluate the LIFR/STAT3 signaling, HepG2 (HB, 8065 from ATCC), were seeded at 7.5 × 10^4 cells/well in a 24-well plate and maintained at 37 °C and 5% CO2 in E-MEM added with 10% FBS, 1% glutamine, and 1% penicillin/streptomycin. On day-1, cells were transiently transfected with the reporter plasmid pGL4.47[luc2P/SIE/Hygro] (CAT no. E4041 Promega, Madison, WI, USA), a vector encoding the hLIFR (CAT no. RC226327) and CD130 (IL6ST) (CAT no. RC215123, OriGene Technologies, Inc. Rockville, MD USA), and finally a vector encoding the human Renilla luciferase gene (pGL4.70) (Promega, Madison, WI, USA). On day-2, cells were primed with the cytokine LIF (10 ng/mL) alone or in combination with different compounds at the concentrations of 10 μM and 50 μM. Then, after 24 h, cellular lysate was assayed for luciferase and Renilla activities using the Firefly & Renilla Luciferase Single TubeAssay Kit (Biotium, Fremont, CA). Luminescence was measured using Glomax 20/20 luminometer (Promega, Madison, WI, USA). Luciferase activities were normalized with Renilla activities.

T1 sequence (P42702 45-1097): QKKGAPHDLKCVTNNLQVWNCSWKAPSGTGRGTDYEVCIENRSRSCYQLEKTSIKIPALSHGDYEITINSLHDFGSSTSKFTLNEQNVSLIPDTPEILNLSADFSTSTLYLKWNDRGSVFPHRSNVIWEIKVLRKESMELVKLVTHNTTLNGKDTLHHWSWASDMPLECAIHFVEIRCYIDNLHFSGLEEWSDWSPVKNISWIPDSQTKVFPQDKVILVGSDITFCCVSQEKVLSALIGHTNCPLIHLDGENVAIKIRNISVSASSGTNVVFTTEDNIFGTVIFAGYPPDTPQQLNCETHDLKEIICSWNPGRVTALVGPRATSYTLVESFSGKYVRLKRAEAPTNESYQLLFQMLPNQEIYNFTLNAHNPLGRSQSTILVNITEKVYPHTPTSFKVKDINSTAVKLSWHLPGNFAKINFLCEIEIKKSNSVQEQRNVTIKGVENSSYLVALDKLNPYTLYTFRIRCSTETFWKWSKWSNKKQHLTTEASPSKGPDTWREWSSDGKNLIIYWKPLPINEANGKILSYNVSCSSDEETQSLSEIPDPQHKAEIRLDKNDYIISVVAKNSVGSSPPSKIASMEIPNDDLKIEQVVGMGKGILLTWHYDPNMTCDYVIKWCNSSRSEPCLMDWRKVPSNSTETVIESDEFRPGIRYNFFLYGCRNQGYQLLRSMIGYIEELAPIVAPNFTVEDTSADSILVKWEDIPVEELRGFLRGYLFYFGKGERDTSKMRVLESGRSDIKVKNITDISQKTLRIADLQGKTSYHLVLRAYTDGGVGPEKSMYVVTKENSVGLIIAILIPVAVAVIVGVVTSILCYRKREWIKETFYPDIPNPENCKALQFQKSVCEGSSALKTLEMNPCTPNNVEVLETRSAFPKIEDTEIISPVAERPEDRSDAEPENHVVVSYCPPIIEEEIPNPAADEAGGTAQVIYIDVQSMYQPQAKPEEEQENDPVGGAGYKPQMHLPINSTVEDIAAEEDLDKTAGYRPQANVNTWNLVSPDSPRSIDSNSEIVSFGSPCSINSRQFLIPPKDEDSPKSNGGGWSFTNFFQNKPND
T1 sequence (P15018 23-202 partner): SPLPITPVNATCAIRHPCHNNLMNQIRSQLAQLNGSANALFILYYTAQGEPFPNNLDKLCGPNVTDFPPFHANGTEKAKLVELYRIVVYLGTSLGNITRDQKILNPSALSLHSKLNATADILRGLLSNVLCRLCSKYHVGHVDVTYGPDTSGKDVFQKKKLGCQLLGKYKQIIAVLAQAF

inhibition at 10 µM [3]	inhibition at 50 µM [3]	Structure (SMILES)	inhibition at 50 µM [4]	further results
45.4%	67.7%	CC1(C)CCC2(C)CCC3(C)C(=CCC4C5(C)CCC(O)C(C)(C(=O)NCCS(=O)(=O)O)C5CCC43C)C2C1 (stereo not shown) [compound 21, 21]	68.8%	
51.3%	83.7%	CC1(C)CCC2(C)CCC3(C)C(=CCC4C5(C)CCC(O)C(C)(C(=O)NCC(=O)O)C5CCC43C)C2C1 (stereo not shown) [compound 22, 22]	58.3%	
52.9%	88.5%	CC1CCC2(C)CCC3(C)C(=CCC4C5(C)CCC(O)C(C)(C(=O)NCCS(=O)(=O)O)C5CCC43C)C2C1C (stereo not shown) [compound 23, 23]	70.2%	
48.7%	86.9%	CC1CCC2(C)CCC3(C)C(=CCC4C5(C)CCC(O)C(C)(C(=O)NCC(=O)O)C5CCC43C)C2C1C (stereo not shown) [compound 24, 24]	74.8%	

More lines, now with the values behind:

Structure (SMILES)	inhibition at 10 µM [3]	inhibition at 50 µM [3]	inhibition at 50 µM [4]	further results
CC1(C)CC[C@]2(C)CC[C@]3(C)C(=CC[C@@H]4[C@@]5(C)CC[C@@H](O)[C@](C)(C(=O)O)[C@@H]5CC[C@]43C)[C@@H]2C1 [compound 1, (4R)-3α-Hydroxyolean-12-en-24-oic Acid]				IC50 [1]: < 10 µM
C[C@H]1[C@H](C)CC[C@]2(C)CC[C@]3(C)C(=CC[C@@H]4[C@@]5(C)CC[C@@H](O)[C@](C)(C(=O)O)[C@@H]5CC[C@]43C)[C@H]12 [compound 2, (4R)-3α-Hydroxyurs-12-en-24-oic Acid]				IC50 [1]: < 10 µM
CC(=O)O[C@@H]1CC[C@@]2(C)[C@@H](CC[C@]3(C)[C@@H]2CC=C2[C@@H]4CC(C)(C)CC[C@]4(C)CC[C@]23C)[C@@]1(C)C(=O)O [compound 3, (4R)-3α-Acetylolean-12-en-24-oic Acid]				IC50 ([2]; read-out: IC50): < 10 µM
CC(=O)O[C@@H]1CC[C@@]2(C)[C@@H](CC[C@]3(C)[C@@H]2CC=C2[C@@H]4[C@@H](C)[C@H](C)CC[C@]4(C)CC[C@]23C)[C@@]1(C)C(=O)O [compound 4, (4R)-3α-Acetylurs-12-en-24-oic Acid]				IC50 ([2]; read-out: IC50): < 10 µM
CC(C)=CCC[C@H](C(=O)O)[C@@H]1CC[C@]2(C)C3=C(CC[C@@]12C)[C@@]1(C)CC[C@@H](O)C(C)(C)[C@@H]1CC3 [compound 15, 3α-Hydroxytirucalla-8,24-dien-21-oic Acid]				IC50 [2]: < 10 µM
CC(C)=CCC[C@H](C(=O)O)[C@@H]1CC[C@]2(C)C3=C(CC[C@@]12C)[C@@]1(C)CC[C@H](O)C(C)(C)[C@@H]1CC3 [compound 16, 3β-Hydroxytirucalla-8,24-dien-21-oic Acid]				IC50 [2]: < 10 µM
CC(C)=CCC[C@H](C(=O)O)[C@@H]1CC[C@]2(C)C3=C(CC[C@@]12C)[C@@]1(C)CCC(=O)C(C)(C)[C@@H]1CC3 [compound 17, 3-Oxotirucalla-8,24-dien-21-oic Acid]				IC50 [2]: < 10 µM
